{
  "source": "patent US6534311B2",
  "about": "“Drosophila melanogaster p70S6 kinase” (Novartis AG, priority 1996, dated 2003)",
  "key": {"[1]": {"test_system": "S6 kinase activity in S2 cells", "assay_type": "cell-based, Drosophila", "conditions": "S2 cells treated with 100 μM cycloheximide for two hours", "procedure": "(§1) Cell extracts are prepared and Drosophila p70^S6K activity is measured as previously described (28) or following immunoprecipitation (Lane, H. A., et al. (1992) EMBO J 11, 1743-1749) with the D20 antibody (2.5 μg).\nS2 cells are plated at 5×10^7 cells per 15 cm dish in Schneider's medium supplemented with antibiotic and 10% foetal calf serum. After 24 h, cells are changed to Schneider's medium without serum and after an additional 36 h, 5 plates of cells are treated with 100 μM cycloheximide for two hours with or without pretreatment with […] rapamycin for 15 min. Cell extracts are prepared by dounce homogenisation in Extraction buffer lacking PNPP as described in Reinhard et al., above. Briefly, each extract is centrifuged for 30 min at 3×105 g, filtered through a 0.2 μm membrane (Millipore), and applied at a flow rate of 0.5ml per min to a 1 ml Mono Q column (Pharmacia) equilibrated in Buffer F (Kozma, S.C., et al. (1989) EMBO J 8, 4125-4132). The column is washed with 10 ml of Buffer F, developed at 0.5 ml per min with a 30 ml gradient from 0-0.5M NaCl in the same buffer, and each fraction is diluted 20-fold and assayed for kinase activity. Factions 16-19 are concentrated on 100 μl of FFQ Sepharose and eluted with 300 μl of 0.5M NaCl in Buffer F. […]"}, "[2]": {"test_system": "Drosophila p70S6K", "assay": "S6 kinase activity immunoprecipitated with D20 antibody from concentrated Mono Q fractions", "assay_type": "cell-based, Drosophila melanogaster", "conditions": "cycloheximide-treated S2 cells, D20 immunoprecipitate and Western blot mobility", "procedure": "as §1\nS2 cells are plated at 5×10^7 cells per 15 cm dish in Schneider's medium supplemented with antibiotic and 10% foetal calf serum. After 24 h, cells are changed to Schneider's medium without serum and after an additional 36 h, 5 plates of cells are treated with 100 μM cycloheximide for two hours with or without pretreatment with […] rapamycin for 15 min. Cell extracts are prepared by dounce homogenisation in Extraction buffer lacking PNPP as described in Reinhard et al., above. […]\nTo distinguish between these rapamycin sensitive and insensitive S6 kinase activities and to determine whether either represented Drosophila p70^S6K, extracts from cycloheximide-stimulated S2 cells, pretreated with or without rapamycin, are fractionated by Mono Q chromatography. The fractions eluted from the Mono Q column are monitored by A280 and subjected to an in vitro S6 kinase assay. […] The concentrated samples from cells treated with cycloheximide either in the absence or presence of rapamycin pretreatment, are either immunoprecipitated and assayed for S6 kinase activity or analysed on Western blots employing the D20 antibody. […]"}},
  "data": [
    {"smiles": "C[C@@H]1C[C@@H]([C@H](O)CC2CC(=O)NC(=O)C2)C(=O)[C@@H](C)C1", "note": "[cycloheximide]", "values": [
      {"measurement": "increase of S6 kinase activity over basal levels", "setting": "[1]", "result": 2.2, "unit": "fold"},
      {"measurement": "activation of Drosophila p70S6K", "setting": "[2]", "result": "induces the activation"}
    ]}
  ]
}
